Laboratory results from patent US20160143944A1, “ANTIMICROBIAL COMPOSITIONS COMPRISING HYPOCHLOROUS ACID AND SILVER” (PURICOE, INC., priority 2013, published 2016).

Test system: Pseudomonas aeruginosa biofilm
Assay: in vitro wound biofilm model (collagen matrix), biocidal effect
Type: cell-based
Settings: 20 min at 35° C., 24 h biofilm in collagen matrix
Experimental: A biofilm test was conducted using hypochlorous acid solutions containing either 200 ppm or 600 ppm AFC. A solution containing a […] combination of silver chelate (30 ppm) and hypochlorous acid (600 ppm) which yielded a final concentration of 200 ppm AFC was also tested. Specifically, the biocidal effects of the solutions were tested using an in vitro wound biofilm model as described in […] et al. (2009), Molnlycke Healthcare. Briefly, a collagen solution was prepared in simulated wound fluid and the collagen was allowed to polymerize at 35° C. for one hour. The collagen matrix was subsequently innoculated with approximately 10^4 colony forming units (CFU) of Pseudomonas aeruginosa and incubated for twenty-four hours. The hypochlorous acid solutions were added to each matrix and incubated at 35° C. for twenty minutes. The tubes were centrifuged to separate the test solutions from the matrices. Subsequently, each matrix was digested with collagenase, washed and any surviving cells were recovered. A biofilm test was conducted to compare the biocidal effects of various hypochlorous acid solutions with or without silver additives, either in form of potassium silver citrate or silver chelate. Specifically, the effects of the solutions on P. aeruginosa biofilm were assessed using an in vitro wound biofilm model as described above. […]

SMILES: OCl [hypochlorous acid solution, hypochlorous acid]
- log reduction of P. aeruginosa colony forming units (CFU) (200 ppm AFC hypochlorous acid solution): one
- log reduction of P. aeruginosa colony forming units (CFU) (600 ppm AFC hypochlorous acid solution): seven
